From PubChem BioAssay AID2745 (NMMLSC, 2010) come the findings set out here.

“And” between values parts separate entries of the source, which are not always exact repeats. Equal values may be shown once. The source made the active and inactive calls. No rule for the calls is given here.

This experiment can be described thus: concentration series on yeast TOR reporter LAP4 – cell-based, MLPCN hits, flow cytometry, dose response (AID 2745).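 Also: yeast exposed to compound for three hours at 30 degrees.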 The conditions noted are these: S. cerevisiae LAP4-GFP reporter, flow cytometry fluorescence; at 33 µM (top of the series). On the technique in general: A flow cytometer gives signals particle by particle.
In the case of `CCOc1ccc(N/N=C(/C#N)C(N)=O)cc1`, the LAP4-GFP fluorescence (kMESF) was 9.57 kMESF (inactive). Regarding `C=CCOc1ccc(C(=O)/C=C2/C(=O)Nc3ccccc32)cc1`, the LAP4-GFP fluorescence (kMESF) is 7.99 kMESF (inactive). `Cc1nc2ccc(NC(=O)c3oc4ccc(F)cc4c3C)cc2s1`: the LAP4-GFP fluorescence (kMESF) is 3.28 kMESF (inactive).

Turning to `Cc1ccc(S(=O)(=O)/N=C(\Sc2ccccc2)c2ccccc2)cc1`, the LAP4-GFP fluorescence (kMESF) was 6.11 kMESF (inactive).

For the molecule `CC1=C(C)/C(=N\OS(=O)(=O)c2ccccc2)C=CC1=O`, the LAP4-GFP fluorescence (kMESF) was 9.73 kMESF (inactive). For `CCOC(=O)CSC1=NC(=O)/C(=C/c2ccc(OC)cc2)S1`, the LAP4-GFP fluorescence (kMESF) was 6.28 kMESF (inactive).

Consider `COc1ccc(N=Cc2nc(-c3ccccc3)oc2OC(C)=O)cc1`, for which the LAP4-GFP fluorescence (kMESF) was 4.93 kMESF (inactive). Consider `CCCCc1ccc(NC(=O)CC(C)=O)cc1`, for which the LAP4-GFP fluorescence (kMESF) is 3.54 kMESF (inactive). The figure for `O=C(NC(=S)NNC(=O)[C@H]1C[C@@H]1c1ccccc1)c1cccc(F)c1` is 17.8 kMESF (inactive); for `CC1(C(=O)NC(=S)NNC(=O)c2ccncc2)CCCCC1` it is 4.99 kMESF (inactive). As for `CC1(c2ccccc2)ON(c2ccccc2C(F)(F)F)C1=O` (configuration not stated), the LAP4-GFP fluorescence (kMESF) is 5.97 kMESF (inactive). With `CCN1C(=O)/C(=C\C(=O)c2cccs2)c2cc(Br)ccc21` the figure was 12 kMESF (inactive); with `C#CCOCCOCCOCCNc1nc(N2CCN(C(=O)CCCCCCCCCCNC(=O)[C@@H](CCC(=O)O)n3cc(CCCCCN)nn3)CC2)nc(N2CCN(C(=O)CCCCCCCCCCNC(=O)[C@H](CCCCN)n3cc(C[C@@H](C)CC)nn3)CC2)n1`, 6.47 kMESF (inactive); with `CC(=O)n1cc(C(C[N+](=O)[O-])SCCN)c2ccccc21` (configuration not stated), 4.35 kMESF (inactive).

As to `O=C1N(c2ccccc2C(F)(F)F)O[C@@]1(c1ccccc1)C1CCCCC1`, the LAP4-GFP fluorescence (kMESF) was 2.73 kMESF (inactive). With `CCCCCCCCCCCCCCCC[n+]1cccc2ccccc21` the figure was 1.21 kMESF (inactive); with `CCCCNc1c2c3c(cccc3n(C)c1=O)C(=O)c1ccccc1-2`, 11.2 kMESF (inactive); with `CCCCOc1ccc(C(=O)NNC(=S)NC(=O)CC)cc1`, 9.81 kMESF (inactive).

On to `CCCc1cc(NCc2ccccn2)n2nc(C)c(-c3ccccc3)c2n1`, for which the LAP4-GFP fluorescence (kMESF) was 9.24 kMESF (inactive). Turning to `O=C(O)c1cc[c]([Hg][Cl])cc1`, the LAP4-GFP fluorescence (kMESF) is 8.49 kMESF (inactive). The figure for `O=c1c2sc(-c3ccccc3)cc2nc2n1CCC2` is 5.96 kMESF (inactive).

`Cc1cccc(NC(c2ccc(C)s2)c2ccc3ccc(C)nc3c2O)n1` (configuration not stated): the LAP4-GFP fluorescence (kMESF) is 16.8 kMESF (inactive).

Regarding `Oc1c(Br)cc(Br)cc1C=Nc1ccc2c(c1)OCO2`, the LAP4-GFP fluorescence (kMESF) is 10.8 kMESF (inactive). The figure for `O=C1c2cccc3c([N+](=O)[O-])ccc(c23)C(=O)N1CCc1ccccn1` is 7.15 kMESF (inactive); for `COc1ccccc1[C@]1(C)ON(c2ccccc2C(F)(F)F)C1=O` it is 7.79 kMESF (inactive). With `CC[C@@]1(c2ccccc2OC)ON(c2ccccc2C(F)(F)F)C1=O`, the LAP4-GFP fluorescence (kMESF) is 6.51 kMESF (inactive). With `O=C(/C=C/c1ccc(Br)cc1)NC(=S)NNC(=O)c1ccco1` the figure was 5.87 kMESF (inactive); with `Cc1c(NC2=C(Cl)C(=O)N(c3ccccc3)C2=O)c(=O)n(-c2ccccc2)n1C`, 6.71 kMESF (inactive); with `O=C1N(c2ccccc2C(F)(F)F)O[C@]1(c1ccccc1)C1CCCCC1`, 2.33 kMESF (inactive). With `Clc1cnc(N/N=C/c2cccs2)c(Cl)c1` the figure was 6.2 kMESF (inactive). `CC(=O)N(\C=C/C=C/C=C1\Sc2ccccc2C1=O)c1ccccc1`: the LAP4-GFP fluorescence (kMESF) was 14.2 kMESF (inactive). As to `CC(C)[C@]1(c2ccccc2)ON(c2ccccc2C(F)(F)F)C1=O`, the LAP4-GFP fluorescence (kMESF) was 2.53 kMESF (inactive). The figure for `O=C(Cc1ccc(Cl)cc1)NNC(=S)NC(=O)c1cccs1` is 9.52 kMESF (inactive); for `CCc1ccc(/C=C/C(=O)c2cc(Br)ccc(=O)c2O)cc1` it is 9 kMESF (inactive); for `O=C(NCc1ccc2c(c1)OCO2)c1nc(S(=O)(=O)Cc2ccccc2)ncc1Cl` it is 4.7 kMESF (inactive).

In the case of `C#CCOCCOCCOCCNc1nc(N2CCN(C(=O)CCCCCCCCCCNC(=O)[C@H](CCCCN)n3cc(C)nn3)CC2)nc(N2CCN(C(=O)CCCCCCCCCCNC(=O)[C@H](CCCN=C(N)N)n3cc(C[C@@H](C)CC)nn3)CC2)n1`, the LAP4-GFP fluorescence (kMESF) is 6.77 kMESF (inactive). In the case of `O=c1cc(-c2ccccc2)cc(-c2ccccc2)n1O`, the LAP4-GFP fluorescence (kMESF) was 5.91 kMESF (inactive). `CS(=O)(=O)N1N=C(c2ccccc2)CC1c1ccc2c(c1)OCO2` (configuration not stated): the LAP4-GFP fluorescence (kMESF) is -20.2 kMESF (inactive). With `CCN(CC)c1ccc2cc(-c3nc(-c4ccc(OC)cc4)cs3)c(=O)oc2c1` the figure was 1.57 kMESF (inactive); with `COc1cc(N=c2ssnc2Cl)c(OC)cc1Cl`, 13.4 kMESF (inactive) and 13.8 kMESF (inactive); with `CCOc1ccccc1/C=c1\sc2ncnn2c1=O`, 19 kMESF (inactive). On to `Cc1ccc2c(nc3s/c(=C\c4ccc(-c5ccccc5C(=O)O)o4)c(=O)n32)c1C`, for which the LAP4-GFP fluorescence (kMESF) is 15.5 kMESF (inactive). The figure for `COc1ccc(N=Cc2nc(-c3ccccc3)oc2OC(=O)c2ccccc2)cc1` is 4.09 kMESF (inactive). With `Cc1ccc(S(=O)(=O)Cc2cc(F)c([N+](=O)[O-])cc2[N+](=O)[O-])cc1` the figure was 1.59 kMESF (inactive); with `O=S(=O)(/N=C(/Sc1ccccc1)c1ccccc1)c1ccccc1`, 11.4 kMESF (inactive); with `Cc1ccc(NC(=O)c2cc(N3C(=O)C=CC3=O)ccc2Cl)cc1C`, 4.75 kMESF (inactive). The figure for `CCCc1cc(=O)oc2cc(C)cc(OCC(=O)NC3CC3)c12` is 3.74 kMESF (inactive); for `CCN(CC)c1ccc(/C=C2/C(=O)c3ccc(C(=O)O)cc3C2=O)cc1` it is 13.8 kMESF (inactive).

Turning to `Cc1cccc(N=C2NC(=O)/C(=C/C=C/c3ccco3)S2)c1C`, the LAP4-GFP fluorescence (kMESF) is 13.7 kMESF (inactive). For the molecule `Cc1ccnc(N2C(=O)c3cccc4c([N+](=O)[O-])ccc(c34)C2=O)c1`, the LAP4-GFP fluorescence (kMESF) was 33.2 kMESF (inactive). On to `CC1(C)OC(c2ccccc2)=C/C(=C/C=C2C(=O)NC(=S)NC2=O)O1`, for which the LAP4-GFP fluorescence (kMESF) was 3.03 kMESF (inactive). The figure for `O=[N+]([O-])c1ccc(-c2cn3nc(-c4ccccc4)c(-c4ccccc4)nc3n2)cc1` is 9.37 kMESF (inactive); for `CC(=O)N(C(C)=O)c1ncnc2c1c(-c1ccc(Cl)cc1)nn2C(C)(C)C` it is 3.97 kMESF (inactive). The figure for `CN(c1ccccc1)c1ccc(/C=c2\s/c(=C(/C#N)C(=O)C(C)(C)C)n(Cc3ccco3)c2=O)cc1` is 10.4 kMESF (inactive); for `COc1ccc(C(=O)/C=C2/C(=O)Nc3ccccc32)cc1OC` it is 4.19 kMESF (inactive). `Cc1nn(C)c(C)c1N1C(=O)c2cccc3c(Br)ccc(c23)C1=O`: the LAP4-GFP fluorescence (kMESF) was 5.85 kMESF (inactive). Take `C=CCOc1cccc(C(=O)/C=C2/C(=O)Nc3ccccc32)c1`: the LAP4-GFP fluorescence (kMESF) was 8.61 kMESF (inactive). The figure for `Cc1sc(/C=C2\C(=O)ON=C2c2ccccc2)cc1Br` is 2.73 kMESF (inactive); for `COc1ccc(NC2=C(Cl)C(=O)N(CCc3ccccc3)C2=O)c(OC)c1` it is 3.18 kMESF (inactive); for `COc1ccc(C2=CC3=C(Br)C(=O)C(C)(O)C(=O)C3=CO2)cc1` (configuration not stated) it is 0.34 kMESF (inactive). The figure for `Cc1ccc(N=Nc2ccc(O)c3ncccc23)cc1` is 4.95 kMESF (inactive); for `CCOc1cc(C=C2C(=O)c3ccccc3C2=O)ccc1OCC(=O)Nc1ccc(C)cc1` it is 3.87 kMESF (inactive); for `CCCS(=O)(=O)c1nnnn1-c1cccc(OC)c1` it is 18.2 kMESF (inactive). As for `CS(=O)(=O)c1sc(C#N)c2c1C(=O)CC(c1ccccc1)C2` (configuration not stated), the LAP4-GFP fluorescence (kMESF) was 14.6 kMESF (inactive).

As for `CCOC(=O)c1c(C)oc2c1c(C(c1cccnc1)N1CCOCC1)c(O)c1ccccc12` (configuration not stated), the LAP4-GFP fluorescence (kMESF) was 4.07 kMESF (inactive). As for `CN(C)C(=O)Oc1ccnc2cc(Cl)ccc12`, the LAP4-GFP fluorescence (kMESF) was 2.83 kMESF (inactive). With `N/C(=N\OC(=O)c1cccc(Br)c1)c1ccccc1` the figure was 4.51 kMESF (inactive); with `Cc1ccc(-c2nc(C)sc2CC(=O)Nc2nnc(C)s2)cc1`, 3.81 kMESF (inactive). On to `O=C1NC(=O)N(CCc2ccc(F)cc2)C(=O)/C1=C/c1cccs1`, for which the LAP4-GFP fluorescence (kMESF) is 9.69 kMESF (inactive).

As to `O=S(=O)(c1ccccc1)c1ccc(C(F)(F)F)cn1`, the LAP4-GFP fluorescence (kMESF) is 4.29 kMESF (inactive).

Consider `CCCc1ccc(OCC(=O)NNC(=S)NC(=O)c2ccco2)cc1`, for which the LAP4-GFP fluorescence (kMESF) is 11.2 kMESF (inactive). The figure for `CC[C@]1(c2ccccc2OC)ON(c2ccccc2C(F)(F)F)C1=O` is 7.52 kMESF (inactive). With `O=C1ON=C(c2ccc(Cl)cc2)/C1=C/c1ccc(O)cc1` the figure was 6.72 kMESF (inactive); with `CCc1nc2ccccc2c(=O)n1NC(=O)c1c(O)c2ccccc2n(CC)c1=O`, 3.31 kMESF (inactive); with `CC(=O)Oc1oc(-c2ccccc2)nc1C=Nc1ccc(N(C)C)cc1`, 7.39 kMESF (inactive). Turning to `N/C(=N\OC(=O)c1ccccc1Cl)c1ccc(Cl)cc1`, the LAP4-GFP fluorescence (kMESF) is 11.3 kMESF (inactive). Turning to `O=C(NNC(=S)NC(=O)c1ccco1)c1ccc(F)cc1`, the LAP4-GFP fluorescence (kMESF) was 5.61 kMESF (inactive).
